Results: a melting point compilation (Tetko et al.; mined from patent text by program, amines drawn as free bases though some values may be those of a salt)
Residues, ends and D or L forms follow the SMILES beside them. *: point of attachment. OiPr = CC(C)O*

Row | SMILES | melting point
1 | Clc1cncc(Cl)c1CBr | 40 to 44 °C
2 | CC(=O)Nc1cc(C(F)(F)F)ccc1S(=O)CC#N (stereo unspecified) | 149 to 151 °C
3 | Nc1cc(Cl)nc(SC/C=C/C(=O)N2CCCC2)n1 | 178 to 180 °C
4 | COc1cc(OS(C)(=O)=O)ccc1C1=NC2=NCC(=O)NC2=N1 | > 260 °C
5 | COC(=O)CC/C(C)=C/Cc1c(NC=O)c2c(c(C)c1OC)COC2=O | 187 to 189 °C
6 | CC(C)(C)C(NC(=O)c1ccc(Cl)cc1)NC(=NC#N)Nc1cccc(Cl)c1 (stereo unspecified) | 158 to 160 °C
7 | CN(C)C(=S)ON1C(=O)C2CCCCC2C1=O (stereo unspecified) | 124 to 126 °C
8 | COC(=O)CS(=O)(=O)C1CCCCC1Sc1cc(C(C)(C)C)c(O)c(C(C)(C)C)c1 (stereo unspecified) | 93 °C
9 | CCCCNC(=O)[C@@H](C[C@H](O)[C@@H](N)CC1CCCCCC1)C(C)C | 81 to 82 °C
10 | O=C(CCl)N1Cc2ccccc2P1(=O)c1ccccc1 (stereo unspecified) | 167 to 169 °C
11 | Cc1cccc(C)c1NC(=O)N1CC(C)(C)NC1=S | 242 to 243 °C
12 | [N-]=[N+]=NC1CC(n2cnc3c(N4CCC4)nc(N)nc32)OC1CO (stereo unspecified) | 141 to 143 °C
13 | CCC(=O)c1ccc(O)c(CNC(=O)CCl)c1 | 143 to 145 °C
14 | CCOC(=O)C(=NOC)C(C)=NNC(=O)OC(C)(C)C | 144 to 145 °C
15 | CCCc1nc(Cl)nc(NCCO)n1 | 87 to 88 °C
16 | COC(=O)C=C1CN=C(c2ccccc2Cl)c2cc(Cl)ccc2N1 | 154 to 158 °C
17 | Cc1[nH]c(=O)n(-c2cc(C(=O)OC(C)C)c(Cl)cc2F)c(=O)c1[N+](=O)[O-] | 202 to 205 °C
18 | N#Cc1ncn2c(C(F)(F)F)cc(-c3ccc(OCC(F)(F)F)c(C(F)(F)F)c3)nc12 | 189 °C
19 | Nc1ncc(Sc2ccc(C(F)(F)F)cn2)s1 | 135 to 138 °C
20 | COc1cc(OC)nc(NC(=O)NS(=O)(=O)c2nn(C)c3cccc(F)c23)n1 | 205 to 209 °C
21 | CCOC(=O)C12CCNC(=O)CC1COC2=O (stereo unspecified) | 137 to 138 °C
22 | CC12CC(=O)C3C(CCC4CC(O)CCC43C)C1CCC2C(=O)CCc1ccccn1 (stereo unspecified) | 179 to 180 °C
23 | COc1ccc2c(c1)CCC1C2C(O)CC2(C)C1CC1OCCOC12 (stereo unspecified) | 125 to 126 °C
24 | CN(Cc1ccc(NC(=O)C2=Cc3cc(-c4ccc(S(C)(=O)=O)cc4)ccc3OCC2)cc1)C1CCOCC1 | 233 to 235 °C
25 | CCCCCCCN(C[C@H]1CC[C@H](CN(CCCCCCC)C(=O)Nc2ccc(N(C)C)cc2)CC1)C(=O)Nc1ccc(N(C)C)cc1 | 112 to 114 °C
26 | COC(=O)Cn1cnc2c(C)c[nH]c2c1=O | 233 to 235 °C

Row | SMILES | melting point
27 | CC(C)(C)NS(=O)(=O)c1ccsc1C1=CC(=O)CCC1 | 157 to 158 °C
28 | O=C1Nc2cc(F)ccc2C1c1ncnc2nn(C3CCCC3)cc12 (stereo unspecified) | 258 to 263 °C
29 | O=C1NC2(C(=O)CCl)C=CC1C2 (stereo unspecified) | 86 to 88 °C
30 | CC(C)OC(=O)C(CO)NC(=O)C(CC(=O)O)NC(=O)C(C)N (stereo not drawn) (H-Ala-Asp-Ser-OiPr; configuration not given here) | 222 to 234 °C
31 | O=C(NC(O)C(=O)O)OCc1ccccc1 (stereo unspecified) | 194 to 198 °C
32 | CC(=O)c1cc(C(C)(C)C)cc(Br)c1O | 98 to 98.5 °C
33 | C#CCC(=NO)C1=CCCN(C)C1 | 55 to 57 °C
34 | CC(C)c1nsc(N=C(Br)N(C)C)c1C#N | 92 to 96 °C
35 | O=C(O)Cn1c(-c2cc(Br)co2)nc2cccnc21 | 229 to 231 °C
36 | OCCN1CCN(c2ccccn2)CC1 | 82.5 to 84 °C
37 | CC1(C)SCc2ccccc2C1N=CNC#N (stereo unspecified) | 164 to 166 °C
38 | COC(=O)c1sc2c(c1O)CCC2 | 73 to 75 °C
39 | CCOC(=O)c1ccc(N=CN(C)c2ccc(C(=O)OCC)cc2)cc1 | 89 to 91 °C
40 | COCC1CN(c2ccc(C3CCC4(CC3)OCCO4)cn2)C(=O)O1 (racemic) | 117 to 121 °C
41 | O=[N+]([O-])c1cc(C(F)(F)C(F)(F)C(F)(F)/C=C/C(F)(F)C(F)(F)C(F)(F)c2ccc(O)c([N+](=O)[O-])c2)ccc1O | 122 to 123 °C
42 | CCOC(=O)Nc1c(C)c(C)c2c(c1C)CC(C)(C)O2 | 102 to 104 °C
43 | COc1ccc(CC2SC(=O)NC2=O)c2c1N(Cc1ccc(C(=O)Nc3ccc(C(C)C)cc3)cc1)C(=O)CC2 (stereo unspecified) | 243 to 244 °C
44 | COC(=O)c1ccc(NC(=O)c2cc(C(C)C)c(C(C)C)s2)cc1O | 180 to 181 °C
45 | CCC1C(C)=NN=C(c2ccc(O)c(OC)c2)c2cc(O)c(O)cc21 (stereo unspecified) | 252 to 253 °C
46 | O=C1CCCc2[nH]c3ccc(F)cc3c21 | 255 to 260 °C
47 | O=C(c1cc2ccccc2[nH]1)C1CSC(c2cccnc2)N1 (stereo unspecified) | 142 to 144 °C
48 | NS(=O)(=O)c1ccc(C2CCNCC2)cc1 | 229 to 230 °C
49 | CC1(C)C=C(C(=O)O)CC1 | 67 to 69 °C
50 | CCCC1(O)CCC2C3CCC4=CC(=O)CCC4C3CCC21CC (stereo unspecified) | 132 to 134 °C
51 | COc1cc2c(-c3ccnc(Cl)c3)c(CO)c(CO)cc2cc1OC(C)C | 129 to 131 °C

Now from value to compound:

Row | melting point | SMILES
52 | 146 °C | COc1cc2c(cc1OC)CN(CCCc1ccc(NC(=O)c3cc4ccccc4cn3)cc1)CC2
53 | 107 to 108 °C | O=S(=O)(Nc1ccc2c(OCC3(c4cccc(C(F)(F)F)c4)N=CNO3)cccc2c1)C(F)(F)F (stereo unspecified)
54 | 325 °C | Cc1cccc2[nH]c(=O)c(=O)[nH]c12
55 | 193 °C | O=C(OCc1ccccc1)c1ccc2cc(-c3ccc(C(O)CO)c(C45CC6CC(CC(C6)C4)C5)c3)ccc2c1 (stereo unspecified)
56 | 111 to 112 °C | COc1cccc2c(Nc3ccccc3C)nccc12
57 | 178 to 179 °C | c1csc(-c2n[nH]c3c2Cc2cc(CN4CCOCC4)ccc2-3)c1
58 | 160 to 161 °C | CCCOc1ccc2c(c1)C(OS(=O)(=O)F)=C(C(=O)OC)[C@H]2c1ccc2c(c1)OCO2
59 | 142 °C | O=C(NO)[C@H](CNS(=O)(=O)c1ccc(OCc2ccccc2)cc1)N1CCOCC1
60 | 179 to 180 °C | Cc1cc(OC(=O)c2ccccc2)c2ccccc2c1OCc1ccccc1
61 | 108 to 111 °C | Cc1ccccc1/C=C/c1c(C(C)C)nc(C(C)C)c(CO)c1-c1ccc(F)cc1
62 | 144 °C | O=C(Nc1cccc(Oc2ccccc2)c1)c1ccn2c1CSC2c1cccnc1 (stereo unspecified)
63 | 127 °C | CCN(CC)C(=O)c1nc(-c2ccccc2)nc2ccccc12
64 | 125 to 133 °C | CCc1nc2cc(NC(C)=O)c(Cl)cc2n1-c1ccc(CCNC(=O)NS(=O)(=O)c2ccc(C)cc2)cc1
65 | 154 to 155 °C | COCOc1cc(Cl)ccc1-c1cc(-c2cccc([N+](=O)[O-])c2)c(C#N)c(NC(=O)c2ccco2)n1
66 | 180 to 181 °C | Cc1ccccc1CNC(=O)N1Cc2ccccc2-n2nc(C(C)(C)C)cc21
67 | 254 °C | Cn1cc(C(=O)O)c(=O)c2cc3cc(F)c(N4CCNC(c5cccc(F)c5)C4)cc3nc21 (racemic)
68 | 248 °C | Cc1[nH]c2ccc(Br)cc2c1-c1ccncc1
69 | 79 to 81 °C | CC(C)(C)C1NCc2ccccc2C1c1ccccc1 (stereo unspecified)
70 | 104 to 106 °C | CCC(=O)c1ccc(CN2C(=O)c3ccccc3C2=O)s1
71 | 116 to 118 °C | Cc1ccc(C(=O)O)c(OCc2ccc(OCCc3nc(-c4ccccc4)oc3C)cc2)c1
72 | 159 to 162 °C | CCc1cc(C(=O)c2ccccc2Cl)c(-n2c(CNC(=O)c3cc4ccccc4n3CC(=O)O)nnc2C2CCCCC2)s1
73 | 154 °C | COC(=O)c1nc(S)n(C(c2ccccc2)c2ccccc2)c1C(=O)OC
74 | 170 to 172 °C | CN1CCC[C@H]1c1cnc(Cl)c(Cl)c1C(O)(c1ccccc1)c1ccccc1
75 | 155 to 158 °C | COCOc1cc(F)ccc1-c1cc(-c2cccc(C(=O)OC)c2)c(C#N)c(N)n1
76 | 192 to 193 °C | COc1ccc(-n2nc(C#N)cc2-c2ccc(S(C)(=O)=O)cc2)cc1F

Row | melting point | SMILES
77 | 142 to 143 °C | COC(=O)c1c(-c2ccc(C)cc2)c2cc(OCc3ccccc3)ccc2c(=O)n1CC(C)C
78 | 136 to 137 °C | CC(C)(C)c1ccc(CCC(=O)CCC2CCCCCC2)cc1NC(=O)CC1c2ccccc2Oc2ccccc21
79 | 145 to 147 °C | CS(=O)(=O)c1ccc(-c2oc3ccccc3c(=O)c2-c2ccc(Cl)cc2)cc1
80 | 269 °C | COC(=O)Cn1c(=O)c(=O)[nH]c2ccccc21
81 | 221 to 224 °C | N#CCn1cc(-c2ccccc2)c(=O)c(-c2ccccc2)c1
82 | 272 °C | Nc1ccc(Oc2c(NCc3ccccc3)cc(C(=O)O)cc2S(N)(=O)=O)cc1
83 | 128 to 130 °C | CNc1nc(-c2cccc(NC(=O)c3ccc(OC)c(OC)c3)c2)c2cc(OC)c(OC)cc2n1
84 | 253 °C | O=C1c2ccccc2-c2nc3ccc(O)cc3c(Cl)c21
85 | 216 to 226 °C | Cc1nc(O)c(-c2ccc(S(C)(=O)=O)cc2)s1
86 | 146 to 147 °C | CCCCCS(=O)c1cccc(-c2nc(=O)c3ccccc3s2)n1 (stereo unspecified)
87 | 165 °C | C=CCOc1ccc2ccc(=O)oc2c1
88 | 93 to 96 °C | O=C(O)CCCCCC(=O)CCc1ccc(Cl)cc1
89 | 180 °C | Cc1[nH]c(-c2cccc(C(F)(F)F)c2)nc1C=O
90 | 332 to 336 °C | CC1(C)C(=O)Nc2cc3[nH]c(-c4cccs4)nc3cc21
91 | 120 to 122 °C | CN(c1ccccc1)c1nc(N(C)c2ccccc2)c2sccc2n1
92 | 112 °C | ClCCCCOc1ccc2ccccc2c1
93 | 227 to 229 °C | CSc1ccc(-n2c(-c3ccncc3)nc(SC)c(C#N)c2=O)cc1
94 | 168 to 170 °C | CCCc1cc(C(=O)NCc2ccccn2)ccc1OC(C(=O)NS(=O)(=O)c1ccc(C(C)C)cc1)c1ccc2c(c1)OCO2 (stereo unspecified)
95 | 100 to 105 °C | O=C(CCCCCN1CCN(c2cccc(C(F)(F)F)c2)CC1)N1Cc2ccccc2C1
96 | 148 to 151 °C | Clc1ccc2c(c1)N=C(N1CCN(CC3CC3)CC1)c1ccccc1N2
97 | 185 °C | Oc1ccc(CCCn2ccnc2S)cc1
98 | 95 to 98 °C | CC=Cc1cccc(C(=O)C=Cc2ccccc2)c1O
99 | 123 °C | CCCN(CCCc1c[nH]c2ccc(F)cc12)C1COc2c(F)ccc(C(=O)NC)c2C1 (stereo unspecified)
100 | 153 to 155 °C | O=C(O)c1cc([N+](=O)[O-])ccc1Nc1ccc(CCCc2ccc(Cl)c(Cl)c2)cc1
101 | 130 to 133 °C | O=C1N(C/C=C/C=C/c2ccccc2Cl)CCN1c1cccnc1
